Consider 4 compounds from US20180343865A1, “HERBICIDAL COMPOSITIONS COMPRISING ISOXAZOLO[5,4-B]PYRIDINES” (BASF SE, priority 2015, published 2018).

Holding throughout (format): in vivo
One experiment concerns Abutilon theoprasti. Kind of experiment: Greenhouse postemergence herbicidal activity on ABUTH, 20 DAT. Conditions: for inhibition at 62.5 g/ha: 62.5 gai/ha; for inhibition at 125 g/ha: 125 gai/ha. Here is the method:
(§1) For the post emergence treatment, the plants were first grown to the 2 leaf station (GS 12) and applied at GS 12-19 depending on the species. The herbicidal compositions were suspended or emulsified in water as distribution medium and sprayed using finely distributing nozzles.
(§2) The plants have been cultivated due to their individual requirements at 10 to 25° C. and. 20 to 35° C. The plants were irrigated due to their necessity.
(§3) The respective stated components A), were formulated as a 5% by weight strength emulsion concentrate containing wettol EM 31 20% and Cyclohexanone 80%. The respective stated components B), were formulated as either emulsifiable concentrates (EC), soluble liquids (SL), suspension concentrates (SC) or soluble granules (SG) as indicated in the table below. Component A, component B and the solvent system are introduced into the spray liquor used for applying the active compound. In the examples, the solvent used was water containing 1% Dash (Agnique ME 181 37.5%, Lutensit A-EP 22.5%, and Oleic Acid 5%) and 2% ammonium suflate.
(§4) In the following experiments, the herbicidal activity for the individual herbicide compounds (solo and mixture applications), the herbicidal succession was assessed 20 days after treatment (DAT). The evaluation for the damage on undesired weeds caused by the chemical compositions was carried out using a scale from 0 to 100%, compared to the untreated control plants. Here, 0 means no damage and 100 means complete destruction of the plants. The plants used in the greenhouse experiments belonged to the following species:
(§5) The value E, which corresponds to the effect (in %) that is to be expected if the activity of the individual compounds is additive, was calculated using the method of S. R. Colby (1967) “Calculating synergistic and antagonistic responses of herbicide combinations”, Weeds 15, p. 22 ff. Colby calculation for 2 way mixtures:
(§6) where: • X=effect in percent using herbicide A at an application rate a; • Y=effect in percent using herbicide B at an application rate b; • E=expected effect (in %) of A+B at application rates a+b
(§7) If the value observed in this manner is higher than the value E calculated according to Colby, a synergistic effect is present.

The subject of a further experiment is Amaranthus retroflexus. Kind of experiment: Greenhouse postemergence herbicidal activity on AMARE, 20 DAT. Conditions: AMARE, postemergence. As for the experimental part: as §1, §2, §3, §4, §5, §6, §7
The next experiment concerns Chenopodium album. The experiment in a line: Greenhouse postemergence herbicidal activity on CHEAL, 20 DAT. As for the experimental part:
as §1, §2, §3, §4, §5, §6, §7

A further experiment deals with Kochia scoparia. The experiment in a line: Greenhouse postemergence herbicidal activity on KCHSC, 20 DAT. Here is the method:
as §1, §2, §3, §4, §5, §6, §7

In a further experiment the test system is Amaranthus palmeri. The experiment in a line: Greenhouse postemergence herbicidal activity on AMAPA, 20 DAT. Particulars: Amaranthus palmeri, post-emergence, 480 h; for inhibition at 62.5 g/ha: 62.5 gai/ha. As for the experimental part: as §1, §2, §3, §4, §5, §6, §7
A further experiment relates to Ipomoea hederacea. The experiment in a line: Greenhouse postemergence herbicidal activity on IPOHE, 20 DAT. As for the experimental part: as §1, §2, §3, §4, §5, §6, §7
The test system of a further experiment is Stellaria media. The experiment in a line: Greenhouse postemergence herbicidal activity on STEME, 20 DAT. Particulars: Stellaria media, post-emergence, 480 h, STEME, postemergence, 20 DAT, read-out: % activity, solo bromoxynil. Here is the method:
as §1, §2, §3, §4, §5, §6, §7

The subject of another experiment is Sinapis arvensis. The experiment in a line: Greenhouse postemergence herbicidal activity on SINAR, 20 DAT. Particulars: Mutarda arvensis, post-emergence, 480 h, read-out: % activity, solo bromoxynil. As for the experimental part:
as §1, §2, §3, §4, §5, §6, §7

For another experiment, the system named is Galium aparine. Kind of experiment: Greenhouse postemergence herbicidal activity on GALAP, 20 DAT. Here is the method:
as §1, §2, §3, §4, §5, §6, §7

The subject of another experiment is Polygonum convolvulus. Kind of experiment: Greenhouse postemergence herbicidal activity on POLCO, 20 DAT. Particulars: POLCO, postemergence. As for the experimental part:
as §1, §2, §3, §4, §5, §6, §7

Setting [1] is: Abutilon, post-emergence, 480 h, 20 DAT, read-out: % activity, solo (I.B).
Where [2] appears, read: Abutilon, post-emergence, 480 h, 20 DAT, read-out: % activity, solo bromoxynil.

SMILES strings stand for the structures. Where two headings read alike, the source gives them in different places.

For the compound `O=C(O)c1cc(C2CC2)nc2onc(-c3ccc(OC(F)F)cc3)c12` [(I.B)], the inhibition at 31.25 g/ha came out at 70% with Abutilon theoprasti (Abutilon, post-emergence, 480 h, 31.25 gai/ha, 20 DAT, read-out: % activity, solo (I.B)); 89% in the experiment on Amaranthus retroflexus (Amaranthus retroflexus, post-emergence, 480 h, 31.25 gai/ha, 20 DAT, read-out: % activity, solo (I.B)); 53% in the experiment on Chenopodium album (Chenopodium album, post-emergence, 480 h, 31.25 gai/ha, 20 DAT, read-out: % activity, solo (I.B)); 43% in the experiment with Kochia scoparia (Bassia scoparia, post-emergence, 480 h, 31.25 gai/ha, 20 DAT, read-out: % activity, solo (I.B)); 70% with Amaranthus palmeri (31.25 gai/ha, read-out: % activity, solo (I.B)). For the same compound, the inhibition at 62.5 g/ha stood at 75% in the experiment with Abutilon theoprasti (setting [1]) and 78% with Amaranthus palmeri (read-out: % activity, solo (I.B)). For the same compound, the inhibition at 125 g/ha in the experiment with Abutilon theoprasti (setting [1]) worked out at 73%. For the same compound, the inhibition at 15.6 g/ha in the experiment on Amaranthus palmeri (15.6 gai/ha, read-out: % activity, solo (I.B)) is 20%.

In the case of `COCC(C)N(C(=O)CCl)c1c(C)csc1C` (stereo not shown) [DMTA, Dimethenamid], the inhibition at 175 g/ha in the experiment with Abutilon theoprasti (Abutilon, post-emergence, 480 h, 175 gai/ha, 20 DAT, read-out: % activity, solo DMTA) came out at 0%; with Amaranthus retroflexus (Amaranthus retroflexus, post-emergence, 480 h, 175 gai/ha, 20 DAT, read-out: % activity, solo DMTA) it was 35%; in the experiment with Kochia scoparia (Bassia scoparia, post-emergence, 480 h, 175 gai/ha, 20 DAT, read-out: % activity, solo DMTA) it was 0%; in the experiment with Amaranthus palmeri (175 gai/ha, read-out: % activity, solo DMTA), 10%. For the same compound, the inhibition at 350 g/ha in the experiment with Abutilon theoprasti (Abutilon, post-emergence, 480 h, 350 gai/ha, 20 DAT, read-out: % activity, solo DMTA) was 0%; with Amaranthus retroflexus (Amaranthus retroflexus, post-emergence, 480 h, 350 gai/ha, 20 DAT, read-out: % activity, solo DMTA), 45%; with Chenopodium album (Chenopodium album, post-emergence, 480 h, 350 gai/ha, 20 DAT, read-out: % activity, solo DMTA) it was 28%; in the experiment with Amaranthus palmeri (350 gai/ha, read-out: % activity, solo DMTA), 20%. Besides, in the experiment with Kochia scoparia (350 gai/ha, 20 DAT), the “% activity, solo DMTA” value was found to be 5%.

`N#Cc1cc(Br)c(O)c(Br)c1` [bromoxynil]: the inhibition at 10.5 g/ha in the experiment on Abutilon theoprasti (Abutilon, post-emergence, 480 h, 10.5 gai/ha, 20 DAT, read-out: % activity, solo bromoxynil) amounted to 68%; in the experiment on Amaranthus retroflexus (Amaranthus retroflexus, post-emergence, 480 h, 10.5 gai/ha, 20 DAT, read-out: % activity, solo bromoxynil), 28%; in the experiment on Chenopodium album (Chenopodium album, post-emergence, 480 h, 10.5 gai/ha, 20 DAT, read-out: % activity, solo bromoxynil), 53%; with Ipomoea hederacea (Ipomoea hederacea, post-emergence, 480 h, 10.5 gai/ha, 20 DAT, read-out: % activity, solo bromoxynil), 65%; with Amaranthus palmeri (10.5 gai/ha, read-out: % activity, solo bromoxynil), 58%. Further, the inhibition at 62.5 g/ha in the experiment on Abutilon theoprasti (setting [2]) amounted to 73%; in the experiment with Chenopodium album (Chenopodium album, post-emergence, 480 h, 62.5 gai/ha, 20 DAT, read-out: % activity, solo bromoxynil), 45%; with Stellaria media (62.5 gai/ha), 0%; with Sinapis arvensis (62.5 gai/ha), 70%; with Kochia scoparia (Bassia scoparia, post-emergence, 480 h, 62.5 gai/ha, 20 DAT, read-out: % activity, solo bromoxynil), 50%; with Galium aparine (Galium aparine, post-emergence, 480 h, 62.5 gai/ha, 20 DAT, read-out: % activity, solo bromoxynil) it was 89%. In the experiment with Amaranthus palmeri (read-out: % activity, solo bromoxynil), the inhibition at 62.5 g/ha was found to be 83%. Moreover, the inhibition at 125 g/ha was 90% in the experiment on Abutilon theoprasti (setting [2]); 80% with Amaranthus retroflexus (Amaranthus retroflexus, post-emergence, 480 h, 125 gai/ha, 20 DAT, read-out: % activity, solo bromoxynil); 85% in the experiment with Chenopodium album (Chenopodium album, post-emergence, 480 h, 125 gai/ha, 20 DAT, read-out: % activity, solo bromoxynil); 72% in the experiment with Ipomoea hederacea (Ipomoea hederacea, post-emergence, 480 h, 125 gai/ha, 20 DAT, read-out: % activity, solo bromoxynil); 0% in the experiment with Stellaria media (125 gai/ha); 70% in the experiment with Galium aparine (Galium aparine, post-emergence, 480 h, 125 gai/ha, 20 DAT, read-out: % activity, solo bromoxynil). Besides, the inhibition at 250 g/ha in the experiment with Abutilon theoprasti (Abutilon, post-emergence, 480 h, 250 gai/ha, 20 DAT, read-out: % activity, solo bromoxynil) turned out to be 90%; with Amaranthus retroflexus (Amaranthus retroflexus, post-emergence, 480 h, 250 gai/ha, 20 DAT, read-out: % activity, solo bromoxynil), 92%; in the experiment with Chenopodium album (Chenopodium album, post-emergence, 480 h, 250 gai/ha, 20 DAT, read-out: % activity, solo bromoxynil), 95%; in the experiment on Stellaria media (250 gai/ha), 0%; in the experiment on Sinapis arvensis (250 gai/ha), 95%. Further, the inhibition at 21 g/ha in the experiment with Chenopodium album (Chenopodium album, post-emergence, 480 h, 21 gai/ha, 20 DAT, read-out: % activity, solo bromoxynil) is 80%; in the experiment with Ipomoea hederacea (Ipomoea hederacea, post-emergence, 480 h, 21 gai/ha, 20 DAT, read-out: % activity, solo bromoxynil) it was 65%.

Turning to `Cc1c(C(=O)c2cnn(C)c2O)ccc(S(C)(=O)=O)c1C1=NOCC1` [topramezone], the “% activity, solo application topramezone” value turned out to be 93% in the experiment with Abutilon theoprasti (6.25 gai/ha); 25% in the experiment with Polygonum convolvulus (6.25 gai/ha); 25% in the experiment on Polygonum convolvulus (12.5 gai/ha); 68% with Polygonum convolvulus (25 gai/ha); 98% in the experiment on Amaranthus retroflexus (25 gai/ha); 30% with Chenopodium album (6.25 gai/ha). Further, the “% activity, solo application topramezone” value was 55% in the experiment with Chenopodium album (12.5 gai/ha); 55% in the experiment on Chenopodium album (25 gai/ha); 73% with Chenopodium album (50 gai/ha); 23% with Ipomoea hederacea (6.25 gai/ha); 55% in the experiment on Ipomoea hederacea (12.5 gai/ha); 75% with Ipomoea hederacea (25 gai/ha). For the same compound, the “% activity, solo application topramezone” value in the experiment with Ipomoea hederacea (50 gai/ha) was 88%; in the experiment with Kochia scoparia (6.25 gai/ha) it was 20%; with Kochia scoparia (12.5 gai/ha), 43%; in the experiment on Kochia scoparia (25 gai/ha), 75%; in the experiment on Kochia scoparia (50 gai/ha) it was 90%; with Galium aparine (6.25 gai/ha), 70%. In addition, the results for the “% activity, solo application topramezone” value in the experiment with Galium aparine (12.5 gai/ha), with Galium aparine (25 gai/ha) and in the experiment with Galium aparine (50 gai/ha) were 75%, 70% and 85%, respectively.
